Assay results published in PMC5751115, “Screening In Vitro Targets Related to Diabetes in Herbal Extracts from Peru: Identification of Active Compounds in Hypericum laricifolium Juss. by Offline High-Performance Liquid Chromatography” (International Journal of Molecular Sciences, 2017).

What was measured:
α-glucosidase [1] = test: α-Glucosidase inhibitory assay; format: biochemical
Method: α-Glucosidase inhibitory activity was determined using a previously reported method with slight modifications. The initial concentration of the enzyme solution was 0.015 mg/mL in 0.1 M phosphate buffer (pH 6.9) and the initial concentration of the substrate solution was 1 mM in the same phosphate buffer. The enzyme solution was mixed in a clear 96-well microplate (flat bottom) and the reaction was initiated by the addition of the substrate to the solution. The plates were incubated at 37 °C for 10 min.

[2] = biological target: rat lens aldose reductase (RLAR) (Rattus norvegicus, UniProt P07943); test: Rat lens aldose reductase (RLAR) assay; format: biochemical; details: for IC50 / AR IC50 (μM): Table 3, isolated compounds, means ± SD (n = 3), NA is not active; for IC50: read-out: AR IC50
Method: The rat lenses (RL) were prepared as follows: the RL were removed from the eyes from 10-week-old Sprague-Dawley rats (weight = 250–280 g) and frozen until required. The rats were housed in a standardized laboratory environment with a 12 h light/12 h dark cycle at constant room temperature (22 ± 1 °C) and humidity (6 ± 5%) before experimentation. All animals had free access to water and food.
The AR inhibitory activities were evaluated using RLAR. Prior to analysis, the lenses were homogenized in 0.1 M phosphate buffer saline (pH 6.2) and subsequently centrifuged at 10,000× g for 30 min at 4 °C. The rat lens aldose reductase (RLAR)-containing supernatant was then collected. A substrate comprising 531 μL 0.1 M potassium buffer (pH 7.0), 90 μL NADPH solution (1.6 mM in potassium buffer), 90 μL RLAR homogenate (6.5 U/mg), 90 μL ammonium sulfate solution (4 M in potassium buffer), and 90 μL DL-glyceraldehyde (25 mM in potassium buffer) was placed into a 1.0-mL cuvette and mixed with 9 μL sample (1 mg/mL dissolved in DMSO). RLAR activity was assessed spectrophotometrically by measuring the decrease in NADPH absorption at 340 nm over a 4 min period.

[3] = ABTS free radical scavenging assay; details: for IC50 / Antioxidants ABTS IC50 (μM): Table 3, isolated compounds, NA is not active; for IC50: read-out: Antioxidants ABTS IC50
Method: The ABTS free radical scavenging activity was determined using ABTS radical cations (ABTS^+) with slight modifications [34]. Briefly, potassium persulfate (3.5 mM) and ABTS diammonium salt (2.0 mM) were mixed, diluted in distilled water, and subsequently allowed to stand in the dark at room temperature for 24 h before use, to allow free radical generation. To determine the scavenging activity, the absorbance was recorded at 750 nm using an EL-800 Universal microplate reader (BioTek Instrument Inc., Winooski, VT, USA) after incubating the sample solutions (10 µL, 1 mg/mL, 0.5 mg/mL in methanol) with ABTS solution (290 µL) for 10 min in a 96-well plate. Trolox was used as a positive control.

[4] = DPPH free radical scavenging assay; details: for IC50 / Antioxidants DPPH IC50 (μM): Table 3, isolated compounds, NA is not active; for IC50: read-out: Antioxidants DPPH IC50
Method: The DPPH free radical scavenging activity was determined as previously described with slight modifications. […] After 15 min incubation in the darkroom, the absorbance change at 570 nm was measured on a microplate reader (EL800 Universal Microplate reader, BioTek Instruments, Winooski, VT, USA). L-Ascorbic acid was used as positive control.

[5] = biological target: T1, Human recombinant AR (HRAR) (Homo sapiens, UniProt P15121); test: HRAR ultrafiltration-HPLC assay; format: binding; details: peak in HL 70% MeOH extract 0.1 mg/mL; HRAR 3.9 μM
T1 construct: purchased Wako Pure Chemical Industries Co. (Osaka, Japan)
Method: The AR Inhibitors (ARIs) present in HL were profiled using a newly developed AR ultrafiltration assay. Specifically, the HL sample (final concentration = 0.1 mg/mL) was incubated with 0.6 M ammonium sulfate and 3.9 μM HRAR (Human recombinant AR) in a total volume of 300 μL at 37 °C for 30 min. The incubated mixture was then filtered by centrifugation at 5167× g for 30 min at room temperature using a Microcon YM-10 centrifugal filter unit. The filtrate was subsequently analyzed by HPLC (Section 3.9). The sample incubated without HRAR was used as control.

[6] = Offline ABTS-HPLC analysis; details: peak area reduction in HL 70% MeOH extract after ABTS
Method: Offline ABTS-HPLC was investigated by modifying a previously reported protocol. Briefly, 10 μL of 70% methanol extract from HL (20 mg/mL) was mixed with 140 μL ABTS solution that was prepared one day in advance. The mixture was then incubated at room temperature for 10 min and subsequently filtered through a 0.45 μm filter. The filtrate was analyzed by HPLC (Section 3.9). The methanol extract of HL (20 mg/mL in MeOH was used as control. The detector monitored the eluent at a wavelength of 300 nm and the % QR was calculated as described in Section 3.11.

α-glucosidase [7] = test: α-Glucosidase ultrafiltration-HPLC assay; format: binding; details: peak in HL 70% MeOH extract 0.1 mg/mL; α-glucosidase 3.9 μM
Method: The α-glucosidase present in the HL was profiled using a newly developed α-glucosidase ultrafiltration assay. Specifically, the HL 30 μL sample (final concentration = 0.1 mg/mL) was incubated with α-glucosidase (3.9 μM) in PBS (300 μL, pH 7.0) at 37 °C for 30 min. The incubated mixture was then filtered by centrifugation at 5167× g for 30 min at room temperature using a Microcon YM-10 centrifugal filter unit (Millipore, Bedford, MA, USA). The filtrate was subsequently analyzed by HPLC on a Dionex system (Dionex, Sunnyvale, CA, USA) consisting of a P850 pump, an ASI-100 automated sample injector, a Synergi Hydro-RP 80A column (150 mm × 4.6 mm, 4 μm; Phenomenex, Torrance, CA, USA) maintained at 30 °C, and a UVD170S detector. The injection volume was 10 μL and the flow rate of the mobile phase was 0.7 mL/min. The mobile phase compositions were as follows: 0.1% trifluoroacetic acid (A-line) and methanol (B-line). The gradient elution system was modified as follows: 0–35 min, starting with 5% B-line, programmed to reach 40% B-line at 15 min using a linear gradient, followed by 100% B-line from 15–35 min. The detector monitored the eluent at a wavelength of 254 nm. The sample incubated without α-glucosidase was used as control.

[8] = Offline DPPH-HPLC analysis; details: peak area reduction in HL 70% MeOH extract after DPPH
Method: The DPPH radical assay was modified by an offline DPPH-HPLC assay. […] After incubation (15 min) in the dark room, the mixture was filtered through a 0.45-μm membrane and subsequently analyzed by HPLC (Section 3.9). The sample incubated with methanol was used as control. The decreases in peak area were expressed as the % quantitative reduction (% QR), calculated from the equation: % QR = (A − B)/A × 100%, where A and B are the HPLC peak areas of the compound incubated without and with the DPPH methanol solution, respectively.

[9] = means ± SD (n = 3), listed as Quercetin (7)

With C[C@H]1O[C@H](O[C@H]2[C@H](O)[C@@H](O)[C@@H](O[C@H]3[C@H](O)[C@@H](O)C(O)O[C@@H]3CO)O[C@@H]2CO)[C@H](O)[C@@H](O)[C@@H]1N[C@H]1C=C(CO)[C@@H](O)[C@H](O)[C@H]1O (some centres unmarked) [Acarbose, acarbose, reference compound] the “α-Glucosidase Inhibition (%)” value (α-glucosidase [1]; Table 2, 500 μg/mL) was 55.82 ± 2.3%.

Work on O=C(O)c1ccc(O)c(O)c1 [Compound 1, protocatechuic acid] yielded an IC50 [2] of 16.9 ± 1.9 µM, an IC50 ([3]; means ± SD (n = 3)) of 9.7 ± 0.9 µM and an IC50 ([4]; means ± SD (n = 3)) of 263.4 ± 0.2 µM.

For O=C(O)c1ccc(O)cc1 [Compound 2, p-hydroxybenzoic acid], the “AR IC50 (μM)” value [2] was “inactive”, the “Antioxidants ABTS IC50 (μM)” value ([3]; means ± SD (n = 3)) was “inactive” and the “Antioxidants DPPH IC50 (μM)” value ([4]; means ± SD (n = 3)) was “inactive”.

With O=C(/C=C/c1ccc(O)c(O)c1)O[C@@H]1C[C@](O)(C(=O)O)C[C@@H](O)[C@H]1O [Compound 3, chlorogenic acid] the IC50 [2] was 0.23 µM and the “total binding degree (TBD), HRAR ultrafiltration-HPLC” value [5] was ~ 20%.

With COc1cc(C(=O)O)ccc1O [Compound 4, vanillic acid] the “AR IC50 (μM)” value [2] was “inactive”, the “Antioxidants ABTS IC50 (μM)” value ([3]; means ± SD (n = 3)) was “inactive” and the “Antioxidants DPPH IC50 (μM)” value ([4]; means ± SD (n = 3)) was “inactive”.

With O=C(O)/C=C/c1ccc(O)c(O)c1 [Compound 5, caffeic acid] the IC50 [2] was 28.3 ± 0.9 µM, the “quantitative reduction percentage (QR), offline ABTS-HPLC” value (“quantitative reduction percentage (QR)” for short) [6] was 76% and the IC50 ([3]; means ± SD (n = 3)) was 7.2 ± 1.1 µM. For the same molecule, the IC50 ([4]; means ± SD (n = 3)) was 47.2 ± 0.1 µM.

For O=C(O)[C@H]1O[C@@H](Oc2c(-c3ccc(O)cc3)oc3cc(O)cc(O)c3c2=O)[C@H](O)[C@@H](O)[C@@H]1O [Compound 6, kaempferol 3-O-glucuronide], the IC50 [2] was 6 ± 1.1 µM, the IC50 ([3]; means ± SD (n = 3)) was 11 ± 0.2 µM and the IC50 ([4]; means ± SD (n = 3)) was 58.8 ± 2.1 µM. For the same molecule, the “total binding degree (TBD), HRAR ultrafiltration-HPLC” value [5] was 30%.

In the case of O=c1c(O)c(-c2ccc(O)c(O)c2)oc2cc(O)cc(O)c12 [Compound 7, quercetin], the “total binding degree (TBD), α-glucosidase ultrafiltration-HPLC” value (α-glucosidase [7]) is reported as 61.57%, the α-glucosidase percentage inhibition (α-glucosidase [1]; isolated compound, Figure 2, 50 μg/mL) is reported as 91% and the “% quantitative reduction (QR), offline DPPH-HPLC” value [8] is reported as 42.8%. For the same molecule, the “quantitative reduction percentage (QR)” value [6] was greater than 80%, the IC50 [3, 9] was 0.33 ± 0.6 µM and the IC50 [4, 9] was 0.33 µM.

In the case of O=c1c(O)c(-c2ccc(O)cc2)oc2cc(O)cc(O)c12 [Compound 8, kaempferol], the IC50 [2] is reported as 9.7 ± 0.5 µM, the “% quantitative reduction (QR), offline DPPH-HPLC” value [8] is reported as 51% and the “quantitative reduction percentage (QR)” value [6] is reported as 54%. For the same molecule, the IC50 ([3]; means ± SD (n = 3)) was 191.8 ± 1.1 µM, the IC50 ([4]; means ± SD (n = 3)) was 326 ± 3.3 µM and the “total binding degree (TBD), HRAR ultrafiltration-HPLC” value [5] was less than 20%.

For O=C1O[C@H]([C@@H](O)CO)C(O)=C1O [L-Ascorbic, L-ascorbic acid, reference compound], the “DPPH Inhibition (%)” value ([4]; Table 2, L-ascorbic acid at 71 μg/mL) was 99.1 ± 0% and the “DPPH IC50” value ([4]; Table 2, means ± SD (n = 3)) was 17.6 ± 0.1 µg/mL.

Work on O=c1c(O)c(-c2ccc(O)c(O)c2)oc2cc(O)cc(O)c12 [Quercetin, quercetin, reference compound] yielded an inhibition at 10 µg/mL ([2]; read-out: AR Inhibition (%)) of 83.7 ± 2.6%.

With Cc1c(C)c2c(c(C)c1O)CCC(C)(C(=O)O)O2 (centres unmarked) [Trolox, 6-hydroxy-2,5,7,8-tetramethylchroman-2-carboxylic acid, reference compound] the “ABTS IC50” value ([3]; Table 2, means ± SD (n = 3)) was 4.6 ± 0.1 µg/mL, the “ABTS Inhibition (%)” value ([3]; Table 2, trolox at 17 μg/mL) was 100 ± 0.1% and the IC50 ([3]; means ± SD (n = 3)) was 18.8 ± 0.5 µM.
